Data as given in patent US11623932B2, “Protein degraders and uses thereof” (Kymera Therapeutics, Inc., priority 2017, dated 2023).

Columns and labels:
[1] = target: Untagged CRBN-DDB1 complex (Homo sapiens (Human), UniProt Q96SW2); experiment: Fluorescence polarization (FP) assay, displacement of Cy5-labeled thalidomide; assay type: binding; details: Cy5-labeled thalidomide 20 nM, 10 min at room temperature
Experimental: The final solution contained 50 mM HEPES, 200 mM NaCl and 2 mM DTT, pH 7.5. The mixtures were incubated at room temperature for 10 min. The FP signals were recorded on an EnVision plate reader (Perkin Elmer) using the following settings: Excitation Light (%): 100; Measurement Height: 12; G-Factor: 1; Detector Gain 1: 500; Detector Gain 2: 500; Flash Number: 100. Dose-dependent loss of FP signals was fitted by four-parameter Logistic Function using GraphPad Prism 7.0 and the IC50 values were reported for each compound.
The compound numbers correspond to the compound numbers in the examples.

BRD4 = BRD4 (Homo sapiens (Human), UniProt O60885); experiment: BRD4 degradation in NAMALWA cells, Western Blot; assay type: cell-based; details: 2 h

Sequence of Untagged CRBN-DDB1 complex (Q96SW2 whole entry): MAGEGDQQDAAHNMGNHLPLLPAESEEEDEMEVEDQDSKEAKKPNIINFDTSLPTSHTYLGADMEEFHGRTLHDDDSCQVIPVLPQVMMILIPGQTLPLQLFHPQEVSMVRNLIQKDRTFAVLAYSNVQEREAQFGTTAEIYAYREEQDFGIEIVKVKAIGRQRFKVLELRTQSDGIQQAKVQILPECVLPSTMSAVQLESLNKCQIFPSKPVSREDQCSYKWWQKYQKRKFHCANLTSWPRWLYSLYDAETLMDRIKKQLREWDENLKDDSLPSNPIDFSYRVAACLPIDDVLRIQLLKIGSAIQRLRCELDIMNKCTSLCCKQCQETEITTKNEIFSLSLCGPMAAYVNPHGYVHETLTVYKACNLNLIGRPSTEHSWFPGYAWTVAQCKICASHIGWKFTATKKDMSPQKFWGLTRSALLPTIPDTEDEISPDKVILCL
Sequence of Untagged CRBN-DDB1 complex (Q16531 whole entry partner): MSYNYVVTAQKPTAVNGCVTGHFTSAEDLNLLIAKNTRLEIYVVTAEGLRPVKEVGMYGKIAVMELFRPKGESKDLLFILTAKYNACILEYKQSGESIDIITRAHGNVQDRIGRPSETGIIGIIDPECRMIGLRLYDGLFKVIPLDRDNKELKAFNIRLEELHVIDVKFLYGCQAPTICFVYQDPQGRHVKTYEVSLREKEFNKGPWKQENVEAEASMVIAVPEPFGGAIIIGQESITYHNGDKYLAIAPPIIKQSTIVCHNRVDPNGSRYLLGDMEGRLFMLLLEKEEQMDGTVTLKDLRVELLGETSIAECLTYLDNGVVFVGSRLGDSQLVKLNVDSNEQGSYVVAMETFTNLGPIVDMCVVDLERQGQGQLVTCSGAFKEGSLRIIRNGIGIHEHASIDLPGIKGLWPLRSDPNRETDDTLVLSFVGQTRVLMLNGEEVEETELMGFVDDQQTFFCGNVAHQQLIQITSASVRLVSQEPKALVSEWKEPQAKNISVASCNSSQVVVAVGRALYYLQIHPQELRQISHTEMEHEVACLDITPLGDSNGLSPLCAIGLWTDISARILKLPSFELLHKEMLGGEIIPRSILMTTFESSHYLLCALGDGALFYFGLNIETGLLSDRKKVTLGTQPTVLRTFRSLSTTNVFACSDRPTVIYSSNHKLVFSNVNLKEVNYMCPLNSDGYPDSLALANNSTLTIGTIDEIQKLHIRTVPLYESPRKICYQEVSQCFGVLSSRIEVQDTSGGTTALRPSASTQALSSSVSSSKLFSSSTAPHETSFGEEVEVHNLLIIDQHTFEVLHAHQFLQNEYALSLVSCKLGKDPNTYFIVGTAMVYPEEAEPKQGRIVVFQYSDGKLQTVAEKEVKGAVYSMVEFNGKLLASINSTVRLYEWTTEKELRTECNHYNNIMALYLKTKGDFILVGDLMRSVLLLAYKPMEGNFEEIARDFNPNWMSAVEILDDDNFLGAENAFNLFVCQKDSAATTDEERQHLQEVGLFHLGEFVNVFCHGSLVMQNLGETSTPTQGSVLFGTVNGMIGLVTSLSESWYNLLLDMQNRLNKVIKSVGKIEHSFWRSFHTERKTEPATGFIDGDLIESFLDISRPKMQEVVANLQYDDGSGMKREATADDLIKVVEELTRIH

| IC50 [1] [µM] | % BRD4 degradation (BRD4; 0.0003 uM) | % BRD4 degradation (BRD4; 0.001 uM) | Compound | % BRD4 degradation (BRD4; 0.003 uM) | % BRD4 degradation (BRD4; 0.01 uM) | % BRD4 degradation (BRD4; 0.03 uM) | % BRD4 degradation (BRD4; 0.1 uM) | % BRD4 degradation (BRD4; 0.3 uM) | % BRD4 degradation (BRD4; 1 uM) |
| --- | --- | --- | --- | --- | --- | --- | --- | --- | --- |
| > 100 |  |  | O=C1CCC(N2C(=O)Cc3ccccc32)C(=O)N1 (stereo not drawn) [Compound 3, 3-(2-Oxo-2,3-dihydro-1H-indol-1-yl)piperidine-2,6-dione] |  |  |  |  |  |  |
|  | C (40 to 60 percent protein degradation) | C (40 to 60 percent protein degradation) | Cc1sc2c(c1C)C(c1ccc(Cl)cc1)=N[C@@H](CC(=O)NCCOCCOCCCc1cccc3c1n(C)c(=O)n3C1CCC(=O)NC1=O)c1nnc(C)n1-2 (stereo partly drawn) [Compound I-36, 2-((S)-4-(4-chlorophenyl)-2,3,9-trimethyl-6H-thieno[3,2-f][1,2,4]triazolo[4,3-a][1,4]diazepin-6-yl)-N-(2-(2-(3-(1-(2,6-dioxopiperidin-3-yl)-3-methyl-2-oxo-2,3-dihydro-1H-benzo[d]imidazol-4-yl)propoxy)ethoxy)ethyl)acetamide] | C (40 to 60 percent protein degradation) | C (40 to 60 percent protein degradation) | B (60 to 80 percent protein degradation) | B (60 to 80 percent protein degradation) | B (60 to 80 percent protein degradation) | B (60 to 80 percent protein degradation) |
|  | B (60 to 80 percent protein degradation) | B (60 to 80 percent protein degradation) | Cc1sc2c(c1C)C(c1ccc(Cl)cc1)=N[C@@H](CC(=O)NCCOCCOCCOCCn1c(=O)n(C3CCC(=O)NC3=O)c3ccccc31)c1nnc(C)n1-2 (stereo partly drawn) [Compound I-37, 2-((S)-4-(4-Chlorophenyl)-2,3,9-trimethyl-6H-thieno[3,2-f][1,2,4]triazolo[4,3-a][1,4]diazepin-6-yl)-N-(2-(2-(2-(2-(3-(2,6-dioxopiperidin-3-yl)-2-oxo-2,3-dihydro-1H-benzo[d]imidazol-1-yl)ethoxy)ethoxy)ethoxy)ethyl)acetamide] | A (greater than 80 percent protein degradation) | A (greater than 80 percent protein degradation) | A (greater than 80 percent protein degradation) | A (greater than 80 percent protein degradation) | A (greater than 80 percent protein degradation) | A (greater than 80 percent protein degradation) |

| Compound | IC50 [1] [µM] | % BRD4 degradation (BRD4; 0.0003 uM) | % BRD4 degradation (BRD4; 0.001 uM) | % BRD4 degradation (BRD4; 0.003 uM) | % BRD4 degradation (BRD4; 0.01 uM) | % BRD4 degradation (BRD4; 0.03 uM) | % BRD4 degradation (BRD4; 0.1 uM) | % BRD4 degradation (BRD4; 0.3 uM) | % BRD4 degradation (BRD4; 1 uM) |
| --- | --- | --- | --- | --- | --- | --- | --- | --- | --- |
| Cc1sc2c(c1C)C(c1ccc(Cl)cc1)=N[C@@H](CC(=O)NCCOCCOCCCc1ccc3c(c1)n(C)c(=O)n3C1CCC(=O)NC1=O)c1nnc(C)n1-2 (stereo partly drawn) [Compound I-35, 2-((S)-4-(4-chlorophenyl)-2,3,9-trimethyl-6H-thieno[3,2-f][1,2,4]triazolo[4,3-a][1,4]diazepin-6-yl)-N-(2-(2-(3-(1-(2,6-dioxopiperidin-3-yl)-3-methyl-2-oxo-2,3-dihydro-1H-benzo[d]imidazol-5-yl)propoxy)ethoxy)ethyl)acetamide] |  | B (60 to 80 percent protein degradation) | A (greater than 80 percent protein degradation) | A (greater than 80 percent protein degradation) | A (greater than 80 percent protein degradation) | A (greater than 80 percent protein degradation) | A (greater than 80 percent protein degradation) | A (greater than 80 percent protein degradation) | A (greater than 80 percent protein degradation) |
| Cc1sc2c(c1C)C(c1ccc(Cl)cc1)=N[C@@H](CC(=O)NCCOCCOCCn1c(=O)n(C3CCC(=O)NC3=O)c3ccccc31)c1nnc(C)n1-2 (stereo partly drawn) [Compound I-38, 2-((S)-4-(4-chlorophenyl)-2,3,9-trimethyl-6H-thieno[3,2-f][1,2,4]triazolo[4,3-a][1,4]diazepin-6-yl)-N-(2-(2-(2-(3-(2,6-dioxopiperidin-3-yl)-2-oxo-2,3-dihydro-1H-benzo[d]imidazol-1-yl)ethoxy)ethoxy)ethyl)acetamide] |  | D (less than 40 percent protein degradation) | B (60 to 80 percent protein degradation) | A (greater than 80 percent protein degradation) | A (greater than 80 percent protein degradation) | A (greater than 80 percent protein degradation) | A (greater than 80 percent protein degradation) | A (greater than 80 percent protein degradation) | A (greater than 80 percent protein degradation) |
